In brackets after ≈: the same amount, converted by molar mass.
How the values were obtained:
Type in all cases: functional
A549 = assay: Cytotoxicity against Homo sapiens (human) A549 cells after 3 days by SRB assay; conditions: A549, 72 h
Hemi-diaphragm [1] = assay: Induction of glucose uptake in Rattus norvegicus Wistar (rat) hemi-diaphragm at 2 mg after 45 min by GOD/POD enzymatic method in presence of insulin
Hemi-diaphragm [2] = assay: Induction of glucose uptake in Rattus norvegicus Wistar (rat) hemi-diaphragm at 2 mg after 45 min by GOD/POD enzymatic method

| SMILES | CC50 (A549) [µg/mL] | Activity (Hemi-diaphragm [1]) [mg/dL] | Activity (Hemi-diaphragm [2]) [mg/dL] |
| --- | --- | --- | --- |
| O=C1NC(=O)/C(=C/c2ccc(OCCOc3ccccc3Cl)cc2)S1 | 100 (≈ 266 µM) | 22.5 | 6 |
| CN(CCOc1ccc(CC2SC(=O)NC2=O)cc1)c1ccccn1 (stereo not given) [ROSIGLITAZONE] | – | 37 | 15.5 |
